According to patent US8338490B2, “Composition for repelling and deterring vermin” (Novartis AG, priority 2006, dated 2012):

Key:
[1] = tested on: various parasites, e.g. ticks; test: Arena test: general method for testing vermin-deterring substances; details: 1 to 100 μg/cm^2 on filter paper, video evaluation
Description: Arena Test: General Method for Testing Vermin-Deterring Substances
This method is carried out in titre plates having 6 wells with a cross-section of 5 cm each, using a computer-supported video system. Each well of the titre plate is lined with a circular filter paper or another suitable carrier material. The substance of formula I to be tested is dissolved in methanol, acetonitrile or another suitable solvent, with ultrasound treatment and heating being employed for poorly-soluble substances. In an amount of 1 to 100 μg/cm^2, the dissolved test substance is placed in the centre of the filter paper on a quadrant or circular area of ca. 2.4 cm^2 radius. 4 of the 6 wells are filled with different test substances or with the same test substance in different dilutions (e.g. 1, 3.2, 5, 10 and 20 μg/cm^2). The 5th well is treated with DEET (N,N-diethyl-m-toluamide) as standard substance. The 6th well is filled with the pure solvent and serves as a control. 60 to 100 larvae or 25 to 50 nymphs or 10 to 25 adults of the parasite to be tested, e.g. ticks, are added to each filter paper, and the system is covered with a pane of glass and positioned under a video camera.
At intervals of 5 seconds, the video camera takes individual pictures of all 6 wells. For a qualitative evaluation, these images are observed in a time-lapse as a continuous film, optically following the movements of the parasites on the filter paper and comparing them with the movements in the control well no. 6 or with the standard in the 5th well. A qualitative observation is thus made as to whether the test parasites move evenly over the whole surface of the filter paper and ignore the test substance, or whether and over what period they avoid the treated zone, and what influence the dilution of the test substance has on the behaviour of the test parasites. In this way, neutral and deterring substances are determined. At the same time, the duration of activity of the test substance is determined and compared with that of the standard. By plotting all the images for each individual well over one another, different areas of density are obtained. This represents the frequency at which the parasites visit certain places. This frequency is evaluated statistically and thus quantitatively by the Willcoxon method in a comparison with the control and with the standard.

[2] = tested on: Amblyomma hebraeum or variegatum (nymphs); test: Arena test in vitro against Amblyomma hebraeum or variegatum (nymphs); details: ca. 25 to 50 per well, video evaluation
Description: This method is carried out in titre plates having 6 wells with a cross-section of 5 cm each, using a computer-supported video system. Each well of the titre plate is lined with a circular filter paper or another suitable carrier material. The substance of formula I to be tested is dissolved in methanol, acetonitrile or another suitable solvent, with ultrasound treatment and heating being employed for poorly-soluble substances. In an amount of 1 to 100 μg/cm^2, the dissolved test substance is placed in the centre of the filter paper on a quadrant or circular area of ca. 2.4 cm^2 radius. 4 of the 6 wells are filled with different test substances or with the same test substance in different dilutions (e.g. 1, 3.2, 5, 10 and 20 μg/cm^2). The 5th well is treated with DEET (N,N-diethyl-m-toluamide) as standard substance. The 6th well is filled with the pure solvent and serves as a control. 60 to 100 larvae or 25 to 50 nymphs or 10 to 25 adults of the parasite to be tested, e.g. ticks, are added to each filter paper, and the system is covered with a pane of glass and positioned under a video camera. At intervals of 5 seconds, the video camera takes individual pictures of all 6 wells. For a qualitative evaluation, these images are observed in a time-lapse as a continuous film, optically following the movements of the parasites on the filter paper and comparing them with the movements in the control well no. 6 or with the standard in the 5th well. A qualitative observation is thus made as to whether the test parasites move evenly over the whole surface of the filter paper and ignore the test substance, or whether and over what period they avoid the treated zone, and what influence the dilution of the test substance has on the behaviour of the test parasites. In this way, neutral and deterring substances are determined. At the same time, the duration of activity of the test substance is determined and compared with that of the standard. By plotting all the images for each individual well over one another, different areas of density are obtained. This represents the frequency at which the parasites visit certain places. This frequency is evaluated statistically and thus quantitatively by the Willcoxon method in a comparison with the control and with the standard. […] Arena Test In Vitro Against Amblyomma hebraeum or variegatum (nymphs) The test is carried out as described above, with ca. 25 to 50 nymphs being added per well. 10 mg of dissolved test substance is applied to an area of 2.4 cm^2 radius. […] Particularly marked long-term activity is shown for example by using the compounds Nos. 1.001, 2.001, 3.001, 4.001, 5.001, 5.184, 5.185, and 5.186 even up to a dilution of 3.2 μg/cm^2.

[3] = tested on: Boophilus microplus Biarra (larvae); test: Arena test in vitro against Boophilus microplus Biarra (larvae); details: ca. 60 to 100 per well, video evaluation
Description: This method is carried out in titre plates having 6 wells with a cross-section of 5 cm each, using a computer-supported video system. Each well of the titre plate is lined with a circular filter paper or another suitable carrier material. The substance of formula I to be tested is dissolved in methanol, acetonitrile or another suitable solvent, with ultrasound treatment and heating being employed for poorly-soluble substances. In an amount of 1 to 100 μg/cm^2, the dissolved test substance is placed in the centre of the filter paper on a quadrant or circular area of ca. 2.4 cm^2 radius. 4 of the 6 wells are filled with different test substances or with the same test substance in different dilutions (e.g. 1, 3.2, 5, 10 and 20 μg/cm^2). The 5th well is treated with DEET (N,N-diethyl-m-toluamide) as standard substance. The 6th well is filled with the pure solvent and serves as a control. 60 to 100 larvae or 25 to 50 nymphs or 10 to 25 adults of the parasite to be tested, e.g. ticks, are added to each filter paper, and the system is covered with a pane of glass and positioned under a video camera. At intervals of 5 seconds, the video camera takes individual pictures of all 6 wells. For a qualitative evaluation, these images are observed in a time-lapse as a continuous film, optically following the movements of the parasites on the filter paper and comparing them with the movements in the control well no. 6 or with the standard in the 5th well. A qualitative observation is thus made as to whether the test parasites move evenly over the whole surface of the filter paper and ignore the test substance, or whether and over what period they avoid the treated zone, and what influence the dilution of the test substance has on the behaviour of the test parasites. In this way, neutral and deterring substances are determined. At the same time, the duration of activity of the test substance is determined and compared with that of the standard. By plotting all the images for each individual well over one another, different areas of density are obtained. This represents the frequency at which the parasites visit certain places. This frequency is evaluated statistically and thus quantitatively by the Willcoxon method in a comparison with the control and with the standard. […] Arena Test In Vitro Against Boophilus microplus Biarra (larvae) The test is carried out as described above, with ca. 60 to 100 larvae being added per well. 10 mg of dissolved test substance is applied to an area of 2.4 cm^2 radius. […] Particularly marked long-term activity is shown for example by using the compounds Nos. 1.001, 2.001, 3.001, 4.001, 5.001, 5.184, 5.185, and 5.186 even up to a dilution of 10 μg/cm^2.

[4] = tested on: Rhipicephalus sanguineus (nymphs); test: Arena test in vitro against Rhipicephalus sanguineus (nymphs); details: ca. 40 to 50, video evaluation
Description: This method is carried out in titre plates having 6 wells with a cross-section of 5 cm each, using a computer-supported video system. Each well of the titre plate is lined with a circular filter paper or another suitable carrier material. The substance of formula I to be tested is dissolved in methanol, acetonitrile or another suitable solvent, with ultrasound treatment and heating being employed for poorly-soluble substances. In an amount of 1 to 100 μg/cm^2, the dissolved test substance is placed in the centre of the filter paper on a quadrant or circular area of ca. 2.4 cm^2 radius. 4 of the 6 wells are filled with different test substances or with the same test substance in different dilutions (e.g. 1, 3.2, 5, 10 and 20 μg/cm^2). The 5th well is treated with DEET (N,N-diethyl-m-toluamide) as standard substance. The 6th well is filled with the pure solvent and serves as a control. 60 to 100 larvae or 25 to 50 nymphs or 10 to 25 adults of the parasite to be tested, e.g. ticks, are added to each filter paper, and the system is covered with a pane of glass and positioned under a video camera. At intervals of 5 seconds, the video camera takes individual pictures of all 6 wells. For a qualitative evaluation, these images are observed in a time-lapse as a continuous film, optically following the movements of the parasites on the filter paper and comparing them with the movements in the control well no. 6 or with the standard in the 5th well. A qualitative observation is thus made as to whether the test parasites move evenly over the whole surface of the filter paper and ignore the test substance, or whether and over what period they avoid the treated zone, and what influence the dilution of the test substance has on the behaviour of the test parasites. In this way, neutral and deterring substances are determined. At the same time, the duration of activity of the test substance is determined and compared with that of the standard. By plotting all the images for each individual well over one another, different areas of density are obtained. This represents the frequency at which the parasites visit certain places. This frequency is evaluated statistically and thus quantitatively by the Willcoxon method in a comparison with the control and with the standard. […] Arena Test In Vitro Against Rhipicephalus sanguineus (nymphs) A test is carried out analogously to example B using ca. 40 to 50 nymphs. […] In particular, the compounds are notable for their almost complete deterring action, which lasts considerably longer than that of DEET. Particularly marked long-term activity is shown for example by compounds Nos. 1.001, 2.001, 3.001, 4.001, 5.001, 5.184, 5.185, and 5.186 even up to a dilution of 10 μg/cm^2.

| Structure (SMILES) | vermin-deterring activity in the arena test [1] | dilution up to which particularly marked long-term activity is shown [2] [μg/cm^2] | dilution up to which particularly marked long-term activity is shown [3] [μg/cm^2] | dilution up to which particularly marked long-term activity is shown [4] [μg/cm^2] |
| --- | --- | --- | --- | --- |
| OCCN(Cc1ccccc1)Cc1ccccc1 [Compound 5.001] | excellent activity | 3.2 | 10 | 10 |
| CC(CO)N(Cc1ccccc1)Cc1ccccc1 (stereo not drawn) [Compound 5.184] | excellent activity | 3.2 | 10 | 10 |
| OCC1CCCCN1Cc1ccccc1 (stereo not drawn) [Compound 1.001] | excellent activity | 3.2 | 10 | 10 |
| OC1CCN(Cc2ccccc2)C1 (stereo not drawn) [Compound 3.001, 1-Benzyl-pyrrolidin-3-ol] | excellent activity | 3.2 | 10 | 10 |
| OCC1CCCN1Cc1ccccc1 (stereo not drawn) [Compound 2.001] | excellent activity | 3.2 | 10 | 10 |
| OC1CCCN(Cc2ccccc2)C1 (stereo not drawn) [Compound 4.001] | excellent activity | 3.2 | 10 | 10 |
